Experiments:
Ileum [1] = assay: Spasmolytic activity against guinea pig ileum assessed as inhibition of spasmogen-induced contraction at 10 ug; format: functional, Cavia porcellus
Ileum [2] = assay: Spasmolytic activity against guinea pig ileum assessed as inhibition of spasmogen-induced contraction at 50 ug; format: functional, Cavia porcellus

For COc1cc2c(cc1OC)[C@H]1[C@@H](C)c3ccc4c(c3CN1CC2)OCO4 [CAVIDINE], the “inhibition (INH)” value (Ileum [1]) was 84% and the “inhibition (INH)” value (Ileum [2]) was 100%.

COc1cc2c(cc1OC)[C@@H]([C@H]1OC(=O)c3c1ccc1c3OCO1)N(C)CC2 [CORLUMINE] was tested, and the “inhibition (INH)” value (Ileum [1]) was 0% and the “inhibition (INH)” value (Ileum [2]) was 50%.

COc1cc2c(cc1OC)-c1c(C)c3ccc4c(c3c[n+]1CC2)OCO4.[Cl-] [DEHYDROCAVIDINE] was tested, and the “inhibition (INH)” value (Ileum [1]) was 20% and the “inhibition (INH)” value (Ileum [2]) was 40%.

COc1cc2c(cc1OC)[C@]1([C@H](O)c3ccc4c(c3[C@@H]1O)OCO4)N(C)CC2 [YEMHUSOMINE] was tested, and the “inhibition (INH)” value (Ileum [1]) was 17% and the “inhibition (INH)” value (Ileum [2]) was 52%.

— ChEMBL document CHEMBL1145653, “The alkaloids of Corydalis meifolia” (J Nat Prod, 1983)
